Reference: US20160136194A1, “Pharmaceutical composition comprising a proton pump inhibitor and a prebiotic for the treatment of ulcerous lesions of the stomach and duodenum” (priority 2010, published 2016)

Key:
Helicobacter pylori [1] = test: Microbiological method: isolation of H. pylori culture from patient material, before and after therapy; type: in vivo; settings: share of patients positive, n = 10
Description: (§1) There were enrolled 80 patients aged 19 to 57 years in the study: males and females with newly diagnosed gastric and duodenal ulcer, five from them with Zollinger-Ellison syndrome.
(§2) All patients were divided into 8 groups of 10 patients each, 4 groups of them were experimental: the declared dosage forms on the base of PPI and prebiotic were orally administered by them. For the first group active components of the composition were omeprazole and a lactulose; for the second group—pantoprazole and prebiotic lactitol; for the third group—lansoprazole, and prebiotic inulin; for the fourth group—rabeprazole and prebiotic amino acids (glutamic acid). 5th, 6th, 7th and 8th groups were control: patients of the 5th group received monotherapy by omeprazole; patients of the 6th group—by lansoprazole; patients of the 7th group—esomeprazole and patients of the 8th group of patients received standard therapy for the elimination of H. pylori: omeprazole, metronidazole and clarithromycin.
(§3) All patients received treatment according to the similar regimen: took the composition of PPI and prebiotic 1-2 times a day within 14 days.
4. Microbiological method. Inoculation and isolation of pure culture of H. pylori from the biopsy material of the mucosa, obtained by gastroduodenoscopy.
Before the beginning and after the termination of the eradication therapy all 80 patients have been enrolled in the clinical trials were microbiologically tested on the presence of H. pylori, lactobacilli and bifidobacteria in the stomach and duodenum content.
The material was analyzed in microbiological laboratory of the Pasteur Institute of Epidemiology and Microbiology, St. Petersburg.
Strains of H. pylori were identified on the base of analysis of colony and cell morphology, cultural, biochemical and tinctorial properties of microorganisms. Lactobacillus strains isolated in the material from the intestine additionally were identified on catalase and oxidase activity.
The bacterium quantity in the material was estimated by calculation of colonies on dense nutrient mediums that were represented in the form of Ig CFU/ml.

Helicobacter pylori [2] = test: Cytological test of the biopsy material of the gastric mucosa; type: in vivo; settings: share of patients positive, n = 10
Description: as §1, §2, §3
1. Cytological and histological examination of imprint smear of the biopsy material of the gastric antrum mucosa, obtained by gastroscopy. Thus, microcolonies of Helicobacter pylori are detected using special stain.

Helicobacter pylori [3] = test: Urease test of gastric mucosa biopsy material; type: in vivo; settings: share of patients positive, n = 10
Description: as §1, §2, §3
2. Urease test. The biopsy material of the gastric mucosa was examinated for the presence of the urease—enzyme specific for Helicobacter pylori (Helicobacter Test INFAI).

gastric acid secretion = settings: compared with PPI of the first generation; cited from earlier work
[4] = after therapy (1-2 times a day, 14 days)

Row | SMILES | Isolation of Helicobacter pylori from stomach content (Helicobacter pylori [1]; [4]) | Isolation of Helicobacter pylori from stomach content (Helicobacter pylori [1]; before therapy, peptic ulcer) | Cytological test of the biopsy material of the gastric mucosa (Helicobacter pylori [2]; after therapy (14 days)) | Cytological test of the biopsy material of the gastric mucosa (Helicobacter pylori [2]; before therapy) | Urease test (Helicobacter pylori [3]; after therapy (14 days)) | Urease test (Helicobacter pylori [3]; before therapy) | Kept pH value <4 in stomach, above PPI of the first generation (gastric acid secretion)
1 | Cc1c(OCC(F)(F)F)ccnc1C[S+]([O-])c1nc2ccccc2[nH]1 (stereo not shown) [6th group, lansoprazole] | 60% | 100% | 40% | 60% | 60% | 70% | –
2 | COc1ccc2nc([S@@+]([O-])Cc3ncc(C)c(OC)c3C)[nH]c2c1 [7th group, esomeprazole] | 50% | 100% | 40% | 70% | 40% | 60% | 10-15%
3 | COc1ccc2[nH]c([S+]([O-])Cc3ncc(C)c(OC)c3C)nc2c1 (stereo not shown) [5th group, omeprazole] | 50% | 100% | 40% | 80% | 30% | 70% | –
